This is an account of results in ChEMBL document CHEMBL1146189, “Antiproliferation and apoptosis induced by C-glycosides in human leukemia cancer cells” (Bioorg Med Chem Lett, 2006).

The term IC50 denotes the point on the concentration scale where inhibition reaches its midpoint.

The subject of test [1] is HL-60. The test is described as follows: Antiproliferative activity against human HL60 cells by MTT assay. In kind it is functional, cell-based. Background: Formazan colour is commonly taken as a measure of viable cells.
For test [2], the system named is HL-60. The test is described as follows: Induction of apoptosis in human HL60 cells. It counts as functional, cell-based.
Setting [3] is: Homo sapiens, HL-60, read-out: IC50.

Calls of active or inactive are those of the source. The rule behind the calls is not given here.

As for `CCCCOC[C@H]1O[C@@H](CCC)[C@H](O)[C@@H](OCCCC)[C@@H]1OCCCC`, the IC50 result with HL-60 [1] (hl-60) is reported as “Not Active”. Same read-out and setting: the result for `c1ccc(COC[C@H]2O[C@H]3C[C@H]3[C@@H](OCc3ccccc3)[C@@H]2OCc2ccccc2)cc1` reads “Not Active”; that for `CC(C)C[C@H]1O[C@H](COCc2ccccc2)[C@@H](OCc2ccccc2)[C@H](OCc2ccccc2)[C@@H]1O`, “Not Active”. As to `OC[C@H]1O[C@@H](Cc2ccccc2)[C@H](O)[C@@H](OCc2ccccc2)[C@@H]1OCc1ccccc1`, in the test with HL-60 [1] (setting [3]), the IC50 came to 20.2 µM.

Consider `O[C@@H]1[C@@H](OCc2ccccc2)[C@H](OCc2ccccc2)[C@@H](COCc2ccccc2)O[C@]12CCCO2`, for which, in the test on HL-60 [1] (hl-60), the IC50 result was “Not Active”.

On to `CCCC[C@@H]1O[C@H](COCc2ccccc2)[C@@H](OCc2ccccc2)[C@H](OCc2ccccc2)[C@H]1O`, for which the IC50 entry in the test with HL-60 [1] (hl-60) is recorded as “Not Active”. Regarding `C=C[C@H]1O[C@H](COCc2ccccc2)[C@@H](OCc2ccccc2)[C@H](OCc2ccccc2)[C@H]1O`, the concentration for half-maximal inhibition (IC50) entry in the test with HL-60 [1] (hl-60) was “Not Active”. Still for that read-out and setting: the result for `CCCC[C@H]1O[C@H](COCc2ccccc2)[C@@H](OCc2ccccc2)[C@H](OCc2ccccc2)[C@H]1O` reads “Not Active”; that for `C=CC[C@@H]1O[C@H](COCc2ccccc2)[C@@H](OCc2ccccc2)[C@H](OCc2ccccc2)C1O` (single isomer, unassigned), “Not Active”. As to `C=CC[C@@H]1O[C@H](COCc2ccccc2)[C@@H](OCc2ccccc2)[C@H](OCc2ccccc2)C1=O`, the IC50 with HL-60 [1] (setting [3]) came to 31.8 µM. `CC[C@H]1O[C@H](COCc2ccccc2)[C@@H](OCc2ccccc2)[C@H](OCc2ccccc2)[C@H]1O`: the half-inhibitory concentration (IC50) entry in the test with HL-60 [1] (hl-60) was “Not Active”.

For the molecule `C[C@H]1O[C@H](COCc2ccccc2)[C@@H](OCc2ccccc2)[C@H](OCc2ccccc2)[C@H]1O`, the IC50 entry with HL-60 [1] (hl-60) is given as “Not Active”. The same measure, in the same setting: the result for `CC(C)C[C@@H]1O[C@H](COCc2ccccc2)[C@H](OCc2ccccc2)[C@H](OCc2ccccc2)[C@H]1O` reads “Not Active”. The same measure, in the same setting: to `CCC[C@@H]1O[C@H](CO)[C@@H](O)[C@H](O)[C@H]1O` belongs “Not Active”; to `O[C@H]1CO[C@H](COCc2ccccc2)[C@@H](OCc2ccccc2)[C@@H]1OCc1ccccc1`, “Not Active”. `ClC1(Cl)[C@@H]2[C@@H](OCc3ccccc3)[C@H](OCc3ccccc3)[C@@H](COCc3ccccc3)O[C@@H]21`: in the test on HL-60 [1] (setting [3]), the IC50 was found to be 46.4 µM.

On to `O[C@@H]1[C@@H](OCc2ccccc2)[C@H](O)[C@@H](COCc2ccccc2)O[C@H]1Cc1ccccc1`, for which the IC50 with HL-60 [1] (setting [3]) is 35.3 µM. For the molecule `CCC[C@H]1O[C@H](COCc2ccccc2)[C@@H](OCc2ccccc2)[C@H](OCc2ccccc2)[C@@H]1O`, in the test on HL-60 [1] (hl-60), the IC50 result is “Not Active”. Turning to `O[C@@H]1[C@@H](OCc2ccccc2)[C@H](OCc2ccccc2)[C@@H](COCc2ccccc2)O[C@H]1CC1CCCCC1`, in the test on HL-60 [1] (setting [3]), the IC50 came out at 4.1 µM. In the case of `CCCCCCCCCCCCCCCOC[C@H]1O[C@@H](CCC)[C@H](O)[C@@H](OCCCCCCCCCCCCCCC)[C@@H]1OCCCCCCCCCCCCCCC`, the IC50 result with HL-60 [1] (hl-60) is listed as “Not Active”. The same measure, in the same setting: the result for `CCCCC[C@@H]1O[C@H](COCc2ccccc2)[C@@H](OCc2ccccc2)[C@H](OCc2ccccc2)[C@H]1O` reads “Not Active”. In the case of `O[C@@H]1[C@@H](OCc2ccccc2)[C@H](OCc2ccccc2)[C@@H](COCc2ccccc2)O[C@H]1c1ccccc1`, the IC50 with HL-60 [1] (setting [3]) stood at 26.3 µM. For `CC[C@@H]1O[C@H](COCc2ccccc2)[C@@H](OCc2ccccc2)[C@H](OCc2ccccc2)[C@H]1O`, in the test with HL-60 [1] (setting [3]), the IC50 was 8.2 µM. In addition, in the test on HL-60 [2], the result was Active. Take `CC(C)C[C@H]1O[C@H](COCc2ccccc2)[C@@H](OCc2ccccc2)[C@H](OCc2ccccc2)[C@H]1O`: the IC50 in the test with HL-60 [1] (setting [3]) amounted to 13.9 µM. On to `C=CC[C@@H]1O[C@H](CO)[C@@H](O)[C@H](O)[C@H]1O`, for which the IC50 entry in the test with HL-60 [1] (hl-60) was “Not Active”. Still for that read-out and setting: to `C#CC[C@@H]1O[C@H](COCc2ccccc2)[C@@H](OCc2ccccc2)[C@H](OCc2ccccc2)[C@H]1O` belongs “Not Active”; to `O[C@@H]1[C@@H](OCc2ccccc2)[C@H](OCc2ccccc2)[C@@H](COCc2ccccc2)O[C@@H]1c1ccccc1`, “Not Active”.

For `O[C@@H]1[C@@H](OCc2ccccc2)[C@H](OCc2ccccc2)[C@@H](COCc2ccccc2)O[C@@H]1Cc1ccccc1`, in the test with HL-60 [1] (hl-60), the IC50 entry is “Not Active”. Consider `CC(=O)OC[C@@H]1O[C@H](COCc2ccccc2)[C@@H](OCc2ccccc2)[C@H](OCc2ccccc2)[C@H]1OC(C)=O`, for which the IC50 entry in the test on HL-60 [1] (hl-60) is “Not Active”. `c1ccc(COC[C@H]2O[C@@H]3C[C@@H]3[C@@H](OCc3ccccc3)[C@@H]2OCc2ccccc2)cc1`: the IC50 with HL-60 [1] (setting [3]) turned out to be 38.5 µM.

As for `CC(=O)OC[C@@H]1O[C@H](COCc2ccccc2)[C@@H](OCc2ccccc2)[C@H](OCc2ccccc2)[C@H]1OCc1ccccc1`, the IC50 entry in the test with HL-60 [1] (hl-60) was “Not Active”. For the molecule `c1ccc(COC[C@H]2OCC[C@@H](OCc3ccccc3)[C@@H]2OCc2ccccc2)cc1`, in the test with HL-60 [1] (setting [3]), the half-maximal inhibitory concentration (IC50) is 39.3 µM. On the same count and under the same terms, the result for `O[C@@H]1[C@@H](OCc2ccccc2)[C@H](OCc2ccccc2)[C@@H](COCc2ccccc2)O[C@H]1Cc1ccccc1` reads 8.7 µM; that for `C=CC[C@@H]1O[C@H](COCc2ccccc2)[C@@H](OCc2ccccc2)[C@H](OCc2ccccc2)[C@H]1OC(C)=O`, 26.9 µM. `OC[C@H]1O[C@@H](Cc2ccccc2)[C@H](O)[C@@H](OCc2ccccc2)[C@@H]1O`: in the test with HL-60 [1] (hl-60), the IC50 entry is recorded as “Not Active”. On the same count and under the same terms, to `CC(C)(C)C[C@@H]1O[C@H](COCc2ccccc2)[C@@H](OCc2ccccc2)[C@H](OCc2ccccc2)[C@H]1O` belongs “Not Active”. With `C=C[C@@H]1O[C@H](COCc2ccccc2)[C@@H](OCc2ccccc2)[C@H](OCc2ccccc2)[C@H]1O`, the IC50 in the test with HL-60 [1] (setting [3]) came to 11.8 µM. On to `CC(C)C[C@@H]1O[C@H](COCc2ccccc2)[C@@H](OCc2ccccc2)[C@H](OCc2ccccc2)[C@@H]1O`, for which, in the test with HL-60 [1] (hl-60), the IC50 result is reported as “Not Active”.

On to `OC[C@H]1O[C@@H](Cc2ccccc2)[C@H](O)[C@@H](O)[C@@H]1O`, for which, in the test with HL-60 [1] (hl-60), the IC50 result is given as “Not Active”. Consider `CC1(C)OC[C@@H]2O[C@H](COCc3ccccc3)[C@@H](OCc3ccccc3)[C@H](OCc3ccccc3)[C@H]2O1`, for which the IC50 in the test with HL-60 [1] (setting [3]) came to 12.5 µM. In the test with HL-60 [2], the outcome was Active. Take `C=CC[C@@H]1O[C@H](COCc2ccccc2)[C@@H](OCc2ccccc2)[C@H](OCc2ccccc2)[C@H]1O`: the IC50 in the test on HL-60 [1] (setting [3]) was found to be 15.1 µM. Moreover, the result in the test on HL-60 [2] was Active. For the molecule `CC(=O)OC[C@H]1O[C@@H](Cc2ccccc2)[C@H](OC(C)=O)[C@@H](OC(C)=O)[C@@H]1OC(C)=O`, the IC50 result in the test on HL-60 [1] (hl-60) is “Not Active”.

In the case of `CCCCCCCCCCCCCCCOC[C@H]1O[C@H](CCC)[C@H](O)[C@@H](OCCCCCCCCCCCCCCC)[C@@H]1OCCCCCCCCCCCCCCC`, the IC50 result in the test with HL-60 [1] (hl-60) is “Not Active”. With `O[C@@H]1[C@@H](O)[C@H](Cc2ccccc2)O[C@H](COCc2ccccc2)[C@H]1O`, in the test on HL-60 [1] (hl-60), the IC50 entry was “Not Active”.

As for `CCC[C@@H]1O[C@H](COC)[C@@H](OC)[C@H](OC)[C@H]1O`, the IC50 entry in the test on HL-60 [1] (hl-60) is reported as “Not Active”. With `O[C@@H]1[C@@H](OCc2ccccc2)[C@H](OCc2ccccc2)[C@@H](COCc2ccccc2)O[C@@H]1CC1CCCCC1`, in the test on HL-60 [1] (setting [3]), the IC50 is 17.2 µM. On to `CC(C)C[C@@H]1O[C@H](COCc2ccccc2)[C@@H](OCc2ccccc2)[C@H](OCc2ccccc2)[C@H]1O`, for which the IC50 in the test on HL-60 [1] (setting [3]) was 8.5 µM. Besides, the outcome in the test with HL-60 [2] was Active.

For the molecule `CCC[C@@H]1O[C@H](COCc2ccccc2)[C@H](OCc2ccccc2)[C@H](OCc2ccccc2)[C@H]1O`, in the test on HL-60 [1] (hl-60), the IC50 entry was “Not Active”.

As for `C[C@@H]1O[C@H](COCc2ccccc2)[C@@H](OCc2ccccc2)[C@H](OCc2ccccc2)[C@H]1O`, the IC50 with HL-60 [1] (setting [3]) was found to be 8.4 µM. As for `CCC[C@H]1O[C@H](COCc2ccccc2)[C@H](OCc2ccccc2)[C@H](OCc2ccccc2)[C@H]1O`, the IC50 entry in the test with HL-60 [1] (hl-60) was “Not Active”. With `CCC[C@H]1O[C@H](COCc2ccccc2)[C@@H](OCc2ccccc2)[C@H](OCc2ccccc2)[C@H]1O`, in the test with HL-60 [1] (setting [3]), the concentration for half-maximal inhibition (IC50) is 28.2 µM. On the same count and under the same terms, the result for `CCC[C@@H]1O[C@H](COCc2ccccc2)[C@@H](OCc2ccccc2)[C@H](OCc2ccccc2)[C@H]1O` reads 11.7 µM. For the molecule `O[C@@H]1[C@@H](OCc2ccccc2)[C@H](OCc2ccccc2)[C@@H](COCc2ccccc2)O[C@H]1CC1CC1`, the IC50 entry in the test with HL-60 [1] (hl-60) is listed as “Not Active”. Same read-out and setting: the result for `O[C@@H]1[C@@H](OCc2ccccc2)[C@H](OCc2ccccc2)[C@@H](COCc2ccccc2)O[C@@]12CCCO2` reads “Not Active”. The same measure, in the same setting: to `C=C[C@H]1O[C@H](COCc2ccccc2)[C@@H](OCc2ccccc2)[C@H](OCc2ccccc2)[C@H]1OC(C)=O` belongs “Not Active”. On to `OC[C@H]1O[C@@H](Cc2ccccc2)[C@H](O)[C@@H](O)[C@@H]1OCc1ccccc1`, for which the IC50 result in the test on HL-60 [1] (hl-60) is “Not Active”. On to `C=CC[C@@H]1O[C@H](COC(C)=O)[C@@H](OC(C)=O)[C@H](OC(C)=O)[C@H]1OC(C)=O`, for which the IC50 entry in the test on HL-60 [1] (hl-60) was “Not Active”. Take `O[C@@H]1[C@@H](O)[C@H](Cc2ccccc2)O[C@H](COCc2ccccc2)[C@H]1OCc1ccccc1`: in the test with HL-60 [1] (setting [3]), the concentration for half-maximal inhibition (IC50) was 26.6 µM. Same read-out and setting: to `CC(C)(C)C[C@H]1O[C@H](COCc2ccccc2)[C@@H](OCc2ccccc2)[C@H](OCc2ccccc2)[C@H]1O` belongs 12.1 µM.

On to `CCC[C@@H]1O[C@H](COCc2ccccc2)[C@@H](OCc2ccccc2)[C@H](OCc2ccccc2)[C@@H]1O`, for which, in the test with HL-60 [1] (hl-60), the IC50 entry is listed as “Not Active”.

In the case of `OCCC[C@@H]1O[C@H](COCc2ccccc2)[C@@H](OCc2ccccc2)[C@H](OCc2ccccc2)[C@H]1O`, in the test with HL-60 [1] (setting [3]), the IC50 came out at 19.3 µM. Turning to `CC(=O)O[C@@H]1[C@@H](OCc2ccccc2)[C@H](OCc2ccccc2)[C@@H](COCc2ccccc2)O[C@@H]1Cc1ccccc1`, in the test with HL-60 [1] (hl-60), the concentration for half-maximal inhibition (IC50) entry was “Not Active”.

In the case of `CC(=O)O[C@@H]1[C@@H](OCc2ccccc2)[C@H](OCc2ccccc2)[C@@H](COCc2ccccc2)O[C@H]1Cc1ccccc1`, the IC50 entry with HL-60 [1] (hl-60) was “Not Active”. For `CC(C)C[C@H]1O[C@H](COCc2ccccc2)[C@H](OCc2ccccc2)[C@H](OCc2ccccc2)[C@H]1O`, the IC50 entry in the test on HL-60 [1] (hl-60) is “Not Active”.
